# Experimental data taken from PubChem BioAssay AID2060626 (Molecular Pharmacology Branch, DTP, NCI, 2025).
# System: 168753-222-R-J1-PDC complex spheroid viability
# Experiment: Anticancer human tumor 168753-222-R-J1-PDC patient-derived bladder carcinoma cell line growth inhibition [CLK]
# Settings: for IC50: curve of first compound; for viability, T/C: stronger effect = lower value
# Summary of the method: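 Multi-cell-type spheroids combined patient-derived tumor cells with HUVEC endothelial cells and human mesenchymal stem cells. Paired agents were dosed in half-log steps down from about clinical Cmax, or from 10 microM where Cmax was unknown.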
# [1] = second compound 0.0316 µM, first compound 0.0316 µM
# [2] = second compound 0.0316 µM, first compound 0.1 µM
# [3] = second compound 0.0316 µM, first compound 0.316 µM
# [4] = second compound 0.0316 µM, first compound 1 µM
# [5] = second compound 0.0316 µM, first compound 3.16 µM
# [6] = second compound 0.0316 µM, first compound 10 µM
# [7] = second compound 0.1 µM, first compound 0.0316 µM
# [8] = second compound 0.1 µM, first compound 0.1 µM
# [9] = second compound 0.1 µM, first compound 0.316 µM
# [10] = second compound 0.1 µM, first compound 1 µM
# [11] = second compound 0.1 µM, first compound 3.16 µM
# [12] = second compound 0.1 µM, first compound 10 µM
# [13] = second compound 0.316 µM, first compound 0.0316 µM
# [14] = second compound 0.316 µM, first compound 0.1 µM
# [15] = second compound 0.316 µM, first compound 0.316 µM
# [16] = second compound 0.316 µM, first compound 1 µM
# [17] = second compound 0.316 µM, first compound 3.16 µM
# [18] = second compound 0.316 µM, first compound 10 µM
# [19] = second compound 1 µM, first compound 0.0316 µM
# [20] = second compound 1 µM, first compound 0.1 µM
# [21] = second compound 1 µM, first compound 0.316 µM
# [22] = second compound 1 µM, first compound 1 µM
# [23] = second compound 1 µM, first compound 3.16 µM
# [24] = second compound 1 µM, first compound 10 µM
# [25] = second compound 3.16 µM, first compound 0.0316 µM
# [26] = second compound 3.16 µM, first compound 0.1 µM
# [27] = second compound 3.16 µM, first compound 0.316 µM
# [28] = second compound 3.16 µM, first compound 1 µM
# [29] = second compound 3.16 µM, first compound 3.16 µM
# [30] = second compound 3.16 µM, first compound 10 µM
# [31] = second compound 10 µM, first compound 0.0316 µM
# [32] = second compound 10 µM, first compound 0.1 µM
# [33] = second compound 10 µM, first compound 0.316 µM
# [34] = second compound 10 µM, first compound 1 µM
# [35] = second compound 10 µM, first compound 3.16 µM
# [36] = second compound 10 µM, first compound 10 µM
# 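Further: viability measured after seven days of drug exposure.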
# 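Wherever viability, T/C is given: luminescence signal used as surrogate for viable cell amount; 100% = DMSO vehicle control wells.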
compound,measurement,setting,value
COc1ccc([C@@H](O)c2cc(-c3ncnc4cc(N5CCOCC5)ccc34)c(F)cc2Cl)nn1 + CN1CCN(c2cc(C(=O)Nc3cc4cc(-c5cnn(C)c5)ccc4cn3)ccn2)CC1,IC50,second compound 0.0316 µM,361 nM
same,IC50,second compound 0.1 µM,47.5 nM
same,IC50,second compound 0.316 µM,< 31.6 nM
same,IC50,second compound 1 µM,< 31.6 nM
same,IC50,second compound 3.16 µM,< 31.6 nM
same,IC50,second compound 10 µM,< 31.6 nM
same,"viability, T/C",[1],95.5%
same,"viability, T/C",[2],82.1%
same,"viability, T/C",[3],55.6%
same,"viability, T/C",[4],19.2%
same,"viability, T/C",[5],11.7%
same,"viability, T/C",[6],7.52%
same,"viability, T/C",[7],63%
same,"viability, T/C",[8],26.1%
same,"viability, T/C",[9],13.6%
same,"viability, T/C",[10],13.1%
same,"viability, T/C",[11],10.1%
same,"viability, T/C",[12],7.24%
same,"viability, T/C",[13],9.76%
same,"viability, T/C",[14],8.36%
same,"viability, T/C",[15],8.98%
same,"viability, T/C",[16],7.9%
same,"viability, T/C",[17],7.78%
same,"viability, T/C",[18],3.67%
same,"viability, T/C",[19],0.16%
same,"viability, T/C",[20],0.12%
same,"viability, T/C",[21],0.13%
same,"viability, T/C",[22],0.07%
same,"viability, T/C",[23],0.79%
same,"viability, T/C",[24],0.13%
same,"viability, T/C",[25],0.05%
same,"viability, T/C",[26],0.08%
same,"viability, T/C",[27],0.15%
same,"viability, T/C",[28],0.05%
same,"viability, T/C",[29],0.09%
same,"viability, T/C",[30],0.54%
same,"viability, T/C",[31],0.04%
same,"viability, T/C",[32],0.81%
same,"viability, T/C",[33],1.23%
same,"viability, T/C",[34],0.1%
same,"viability, T/C",[35],0.4%
same,"viability, T/C",[36],0.47%
COc1cccc2c1C(=O)c1c(O)c3c(c(O)c1C2=O)CC(O)(C(=O)CO)CC3OC1CC(N)C(O)C(C)O1 (stereo unspecified) + CN1CCN(c2cc(C(=O)Nc3cc4cc(-c5cnn(C)c5)ccc4cn3)ccn2)CC1,IC50,second compound 0.0316 µM,33.1 nM
same,IC50,second compound 0.1 µM,< 31.6 nM
same,IC50,second compound 0.316 µM,< 31.6 nM
same,IC50,second compound 1 µM,< 31.6 nM
same,IC50,second compound 3.16 µM,< 31.6 nM
same,IC50,second compound 10 µM,< 31.6 nM
same,"viability, T/C",[1],51.4%
same,"viability, T/C",[2],31.8%
same,"viability, T/C",[3],23.1%
same,"viability, T/C",[4],6.97%
same,"viability, T/C",[5],7.48%
same,"viability, T/C",[6],0.18%
same,"viability, T/C",[7],38.4%
same,"viability, T/C",[8],15.5%
same,"viability, T/C",[9],10.5%
same,"viability, T/C",[10],7.96%
same,"viability, T/C",[11],5.89%
same,"viability, T/C",[12],0.16%
same,"viability, T/C",[13],8.86%
same,"viability, T/C",[14],8.74%
same,"viability, T/C",[15],7.81%
same,"viability, T/C",[16],6.39%
same,"viability, T/C",[17],0.05%
same,"viability, T/C",[18],0.05%
same,"viability, T/C",[19],0.13%
same,"viability, T/C",[20],0.11%
same,"viability, T/C",[21],0.17%
same,"viability, T/C",[22],0.05%
same,"viability, T/C",[23],0.48%
same,"viability, T/C",[24],1.29%
same,"viability, T/C",[25],1.25%
same,"viability, T/C",[26],0.09%
same,"viability, T/C",[27],0.07%
same,"viability, T/C",[28],0.05%
same,"viability, T/C",[29],0.27%
same,"viability, T/C",[30],0.95%
same,"viability, T/C",[31],0.04%
same,"viability, T/C",[32],0.26%
same,"viability, T/C",[33],0.34%
same,"viability, T/C",[34],0.08%
same,"viability, T/C",[35],0.95%
same,"viability, T/C",[36],0.95%
C=C(F)C(=O)N1CCN(c2nc(OCC3CCCN3C)nc3c2CCN(c2cccc4cccc(Cl)c24)C3)CC1CC#N (stereo unspecified) + CNC(=O)c1ccc(Nc2nc(OC3CCCC3)c3c(-c4ccc5nc(C)oc5c4)c[nH]c3n2)c(OC)c1,IC50,second compound 0.0316 µM,> 10000 nM
same,IC50,second compound 0.1 µM,7020 nM
same,IC50,second compound 0.316 µM,8050 nM
same,IC50,second compound 1 µM,41.2 nM
same,IC50,second compound 3.16 µM,< 31.6 nM
same,IC50,second compound 10 µM,< 31.6 nM
same,"viability, T/C",[1],104%
same,"viability, T/C",[2],120%
same,"viability, T/C",[3],102%
same,"viability, T/C",[4],102%
same,"viability, T/C",[5],110%
same,"viability, T/C",[6],52.8%
same,"viability, T/C",[7],94.1%
same,"viability, T/C",[8],103%
same,"viability, T/C",[9],83.9%
same,"viability, T/C",[10],96.2%
same,"viability, T/C",[11],96.5%
same,"viability, T/C",[12],30%
same,"viability, T/C",[13],79.5%
same,"viability, T/C",[14],75.8%
same,"viability, T/C",[15],81.9%
same,"viability, T/C",[16],74.3%
same,"viability, T/C",[17],90%
same,"viability, T/C",[18],43.1%
same,"viability, T/C",[19],50.1%
same,"viability, T/C",[20],50.6%
same,"viability, T/C",[21],45.5%
same,"viability, T/C",[22],28.8%
same,"viability, T/C",[23],46.8%
same,"viability, T/C",[24],31.7%
same,"viability, T/C",[25],23.4%
same,"viability, T/C",[26],26.8%
same,"viability, T/C",[27],26.3%
same,"viability, T/C",[28],17.8%
same,"viability, T/C",[29],18.4%
same,"viability, T/C",[30],18.1%
same,"viability, T/C",[31],22.6%
same,"viability, T/C",[32],21.2%
same,"viability, T/C",[33],24.7%
same,"viability, T/C",[34],19.3%
same,"viability, T/C",[35],17.5%
same,"viability, T/C",[36],14.6%
